According to US8673914B2, “Use of phosphodiesterase inhibitors for treating multidrug resistance” (St. John's University, priority 2011, dated 2014):
Marks after values point to notes of the source that are not given here.

Tests used:
[1] = MTT cytotoxicity assay (Example 4); type: cell-based; conditions: human; HEK/MRP7; alone; read-out: IC50 of paclitaxel
Method in brief: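 MTT viability assay in HEK293 cells carrying empty pcDNA3.1 or MRP7-transfected (G418-selected), seeded at 6000 cells/well in triplicate. Drug exposure 68 h. IC50 from survival curves by Bliss method.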

[2] = MTT cytotoxicity/reversal assay (Example 1); conditions: human
Method in brief: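 HEK293 cells transfected with MRP1 or ABCB1 seeded at 8×10^3 cells/well, grown in DMEM with 10% bovine serum at 37 °C, 5% CO2. MTT added after 68 h, 4 h further incubation, absorbance at 570 nm. IC50 by Bliss method; reversal fold = anticancer drug IC50 without versus with reversal agent.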

KB-3-1 = assay: MTT cytotoxicity/reversal assay (Example 2); type: cell-based, human; conditions: alone
Protocol: (§1) The ABCB1-overexpressing drug resistant cell line KB-V1 (generously provided by Dr. Gottesman, NCI, NIH) was established by a stepwise concentration increase of vinblastine in the culture medium of KB-3-1 cells and subsequently culturing these cells in medium with 1 μg/mL of vinblastine. An ABCC1-overexpressing MDR cell line, KB-CV60, was also derived from KB-3-1 cells and was maintained in medium with 1 μg/mL of cepharanthine and 60 ng/mL of vincristine. Both KB-C2 and KB-CV60 cell lines were kindly provided by Dr. Akiyama (Kagoshima University, Japan). HEK293/pcDNA3.1, ABCG2-482-R5, ABCG2-482-G2, and ABCG2-482-T7 cells were established by selection with 2 mg/mL G418 after transfecting HEK293 with either (1) empty pcDNA3.1 vector or (2) pcDNA3.1 vector containing full length ABCG2 coding either (2a) wild-type arginine (R) or mutant (2b) glycine (G) or (2c) threonine (T) at amino acid position 482, respectively. The wild-type ABCG2-overexpressing drug-resistant cell line MCF-7/Flv1000 was cultured in the medium with 1 μM of flavopiridol. […] Another G482 mutant ABCG2-overexpressing drug resistant cell line, S1-M1-80, was maintained in the medium with 80 μM of mitoxantrone. […] All the cell lines were grown as adherent monolayers in flasks with DMEM (Dulbecco's modified Eagle's medium) culture medium (Hyclone Co.) containing 10% bovine serum at 37° C. in a humidified atmosphere of 5% CO2.
(§2) Cells in 96-well plates were preincubated with or without the reversal agents for 1 h and then different concentrations of chemotherapeutic drugs were added into designated wells. After 68 h of incubation, MTT solution (4 mg/mL) was added to each well, and the plate was further incubated for 4 h, allowing viable cells to change the yellow-colored MTT into dark-blue formazan crystals. Subsequently the medium was discarded, and […] of DMSO was added into each well to dissolve the formazan crystals. The absorbance was determined at 570 nm by an OPSYS MR Microplate Reader from DYNEX Technologies, Inc.

KB-C2 = assay: MTT cytotoxicity/reversal assay (Example 2); type: cell-based, human; conditions: alone
Protocol: as §1, §2

[3] = system: ABCB1 expression in KB-C2 cells; assay: Western blot and immunofluorescence of ABCB1; type: cell-based, human; conditions: for protein level of ABCB1 (Western blot): 10 μM, 36 and 72 h; for expression of ABCB1 in the membrane (immunofluorescence): 72 h
Protocol: Following incubation, the cells were harvested and rinsed twice with ice-cold PBS, and total cell lysates were collected with cell lysis buffer (1×PBS, 1% Nonidet P-40, 0.5% sodium deoxycholate, 0.1% SDS, 100 μg/ml phenylmethylsulfonyl fluoride, 10 μg/ml aprotinin, 10 μg/ml leupeptin) for 30 min with gentle rocking, and clarified by centrifugation at 12,000 rpm for 10 min at 4° C. Equal amounts (100 μg of protein) of cell lysates were resolved by sodium dodecyl sulfate polyacrylamide gel electrophoresis (SDS-PAGE) and electrophoretically transferred onto polyvinylidene fluoride (PVDF) membranes. After incubation in a blocking solution containing 5% nonfat milk in TBST buffer (10 mM Tris-HCL (pH 8.0), 150 mM NaCl, and 0.1% Tween 20) for 1 h at room temperature, membranes were immunoblotted overnight with primary monoclonal antibodies C219 (1:200) against ABCB1, or 14C10 (1:200) against GAPDH, at 4° C. Subsequently, the membranes were washed three times for 15 min with TBST buffer and incubated at room temperature for 2 h with HRP-conjugated secondary antibody at 1:1000 dilutions. The membranes underwent three additional washes for 15 min with TBST buffer and the protein-antibody complexes were visualized by the enhanced PHOTOTOPE® HRP Detection Kit (Cell Signaling Technology, Inc.) and exposed to Kodak medical X-ray processor (Eastman Kodak Co., Rochester, N.Y.). […] Propidium iodide was used for nuclear staining.

KB-3-1 cells [4] = assay: [^3H]-paclitaxel efflux (Example 1); type: cell-based, human; conditions: absence or presence of vardenafil
Protocol: (§3) The cells were washed three times with ice-cold PBS, then suspended in fresh medium with or without reversal agents at 37° C. […] Each sample was placed in scintillation fluid and the radioactivity was measured in a Packard TRI-CARB1 1900CA liquid scintillation analyzer from Packard Instrument Company, Inc. (Downers Grove, Ill.).

KB-3-1 cells [5] = assay: [^3H]-paclitaxel accumulation (Example 1); type: cell-based, human; conditions: 10 μM
Protocol: as §3

Row | SMILES | IC50 at 68 h [1] | IC50 at 68 h [2] | fold-resistance, paclitaxel (KB-3-1) | fold-resistance, paclitaxel (KB-C2) | protein level of ABCB1 (Western blot) [3] | expression of ABCB1 in the membrane (immunofluorescence) [3] | change in effluxed paclitaxel (KB-3-1 cells [4]) | effect on paclitaxel accumulation (KB-3-1 cells [5])
1 | CC(=O)O[C@H]1C(=O)[C@@]2(C)[C@H]([C@H](OC(=O)c3ccccc3)[C@]3(O)C[C@H](OC(=O)[C@H](O)[C@@H](NC(=O)c4ccccc4)c4ccccc4)C(C)=C1C3(C)C)[C@]1(OC(C)=O)CO[C@@H]1C[C@@H]2O [Paclitaxel, paclitaxel] | 0.107 ± 0.0112 µM | 219 ± 13.2 µM | (1.0)^c | (788.5) |  |  |  | 
2 | CN1CC(=O)N2[C@H](c3ccc4c(c3)OCO4)c3[nH]c4ccccc4c3C[C@@H]2C1=O [Tadalafil, tadalafil] |  |  |  |  | not significantly altered | neither vardenafil nor tadalafil altered the expression of ABCB1 in the membrane |  | 
3 | CCCc1nc(C)c2c(=O)[nH]c(-c3cc(S(=O)(=O)N4CCN(CC)CC4)ccc3OCC)nn12 [Vardenafil, vardenafil] |  |  |  |  | not significantly altered | neither vardenafil nor tadalafil altered the expression of ABCB1 in the membrane | No significant change | without altering the levels
